Experimental findings from US7638535B2, “4-(aminomethyl)-piperidine benzamides as 5HT4-antagonists” (Janssen Pharmaceutica N.V., priority 2003, dated 2009) are described below.

T1 sequence (Q13639 whole entry): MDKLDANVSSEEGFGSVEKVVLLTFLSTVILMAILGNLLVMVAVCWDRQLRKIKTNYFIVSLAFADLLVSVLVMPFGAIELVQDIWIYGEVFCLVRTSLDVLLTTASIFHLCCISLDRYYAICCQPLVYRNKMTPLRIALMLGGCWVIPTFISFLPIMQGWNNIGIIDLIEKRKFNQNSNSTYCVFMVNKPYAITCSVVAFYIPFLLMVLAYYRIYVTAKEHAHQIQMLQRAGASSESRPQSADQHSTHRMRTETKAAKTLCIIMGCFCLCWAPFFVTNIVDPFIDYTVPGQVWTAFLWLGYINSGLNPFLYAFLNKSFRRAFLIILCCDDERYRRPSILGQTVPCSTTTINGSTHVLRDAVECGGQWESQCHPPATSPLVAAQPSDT

The assay has as its target T1, h5-HT4b (Homo sapiens, UniProt Q13639).
T1 construct: expressed in transfected cells; host or cells: HEK 293 (clone 9), membrane preparation
Briefly: 5HT4 antagonism: [3H]GR113808 binding to membranes of h5-HT4b-HEK 293 clone 9 cells. Particulars: displacement of [3H]GR113808 0.1 nM, h5-HT4b-HEK 293 membranes, 30 min at 25° C.; read-out: pIC50 (5HT4 antagonistic data) (converted). As for the experimental part:
h5-HT4b-HEK 293 clone 9 cells were cultured in 150 mm Petri dishes and washed twice with cold PBS. The cells were then scraped from the plates and suspended in 50 mM Tris-HCl buffer, pH 7.4 and harvested by centrifugation at 23,500 rpm for 10 minutes. The pellet was resuspended in 5 mM Tris-HCl, pH 7.4 and homogenized with an Ultra Turrax homogenizer. The membranes were collected by centrifugation at 30,000 rpm for 20 min, resuspended in 50 mM Tris-HCl pH 7.4 and stored at −80° C. For the experiment, assay mixtures (0.5 ml) contained 50 μl of the tritiated ligand (5-HT4 antagonist [^3H]GR113808 0.1 nM) and 0.4 ml membrane preparation (15 μg protein/ml). 50 μl of 10% DMSO was added for total binding. 50 μl of 1 μM of (+)-trans-(1-butyl-3-hydroxy-4-piperidinyl)methyl 8-amino-7-chloro-2,3-dihydro-1,4-benzodioxin-5-carboxylate (a proprietary 5HT4 agonist of Janssen Pharmaceutica) was added for determination of non-specific binding.
The [^3H]GR113808 assay buffer was 50 mM HEPES-NaOH, pH 7.4. The mixtures were incubated for 30 min at 25° C. The incubation was terminated by filtration over a Unifilter 96 GF/B presoaked in 0.1% polyethylenimine, followed by six washing steps with 50 mM HEPES-NaOH, pH 7.4.
For `Nc1cc(C(=O)NC[C@@H]2CCN(Cc3ccc(F)cc3)C[C@H]2O)c2c(c1Cl)OCCCO2` [compound 78], the IC50 is 9.33 nM.
The figure for `COCCN1CC[C@@H](CNC(=O)c2cc(N)c(Cl)c3c2OCCCO3)[C@H](O)C1` [compound 79] is 39.8 nM; for `CC(=O)CCCN1CC[C@@H](CNC(=O)c2cc(N)c(Cl)c3c2OCCCO3)[C@H](O)C1` [compound 80] it is 7.59 nM; for `CNCCCN1CC[C@@H](CNC(=O)c2cc(NC)cc3c2OCCCO3)[C@H](O)C1` [compound 81] it is 1150 nM.
The figure for `N#CCN1CC[C@@H](CNC(=O)c2cc(N)c(Cl)c3c2OCCCO3)[C@H](O)C1` [compound 82] is 6170 nM; for `CC(=O)CCCN1CC[C@@H](CNC(=O)c2cc(N)cc3c2OCCO3)[C@H](O)C1` [compound 83] it is 14.8 nM; for `CNc1cc2c(c(C(=O)NC[C@@H]3CCN(CCOCCO)C[C@H]3O)c1)OCCO2` [compound 84] it is 93.3 nM.
The figure for `Nc1cc2c(c(C(=O)NC[C@@H]3CCN(CCCOC4CCCCC4)C[C@H]3O)c1)OCCO2` [compound 85] is 6.31 nM; for `Nc1cc2c(c(C(=O)NC[C@@H]3CCN(CCOCCO)C[C@H]3O)c1)OCCO2` [compound 86] it is 132 nM; for `COc1cc2c(c(C(=O)NC[C@@H]3CCNC[C@H]3O)c1)OCCCO2` [compound 88] it is 257 nM.
Turning to `CNCCCCN1CC[C@@H](CNC(=O)c2cc(N)c(Cl)c3c2OCCO3)[C@H](O)C1` [compound 89], the IC50 is 30.9 nM.
Regarding `CNCCCCN1CC[C@@H](CNC(=O)c2cc(NC)cc3c2OCCO3)[C@H](O)C1` [compound 90], the IC50 was 34.7 nM.
The figure for `CNCCCCN1CC[C@@H](CNC(=O)c2cc(NC)cc3c2OCCCO3)[C@H](O)C1` [compound 91] is 229 nM.
The figure for `Cc1nccnc1NCCN1CC[C@@H](CNC(=O)c2cc(N)c(Cl)c3c2OCCCO3)[C@H](O)C1` [compound 92] is 12 nM; for `CC(C)OCCCN1CC[C@@H](CNC(=O)c2cc(N)c(Cl)c3c2OCCO3)[C@H](O)C1` [compound 93] it is 17 nM.
The figure for `CNCCCCN1CC[C@@H](CNC(=O)c2cc(N)c(Cl)c3c2OCCCO3)[C@H](O)C1` [compound 94] is 34.7 nM.
For `CNc1cc2c(c(C(=O)NC[C@@H]3CCN(CCNc4nccnc4C)C[C@H]3O)c1)OCCCO2` [compound 95], the IC50 is 36.3 nM.
In the case of `CC(C)OCCCN1CC[C@@H](CNC(=O)c2cc(N)c(Cl)c3c2OCCCO3)[C@H](O)C1` [compound 96], the IC50 is 6.17 nM.
The figure for `CNc1cc2c(c(C(=O)NC[C@@H]3CCN(CCCCO)C[C@H]3O)c1)OCCO2` [compound 97] is 15.8 nM.
The figure for `Nc1cc2c(c(C(=O)NC[C@@H]3CCN(CCCCO)C[C@H]3O)c1)OCCO2` [compound 98] is 14.8 nM.
The figure for `CS(=O)(=O)NCCN1CC[C@@H](CNC(=O)c2cc(N)cc3c2OCCCO3)[C@H](O)C1` [compound 99] is 72.4 nM; for `CNc1cc(C(=O)NC[C@@H]2CCN(CCCO)C[C@H]2O)c2c(c1Cl)OCCO2` [compound 100] it is 16.6 nM.
Consider `CNc1cc2c(c(C(=O)NC[C@@H]3CCN(CCCOC(C)C)C[C@H]3O)c1)OCCCO2` [compound 101], for which the IC50 is 50.1 nM.
The figure for `CNc1cc2c(c(C(=O)NC[C@@H]3CCN(CCNS(C)(=O)=O)C[C@H]3O)c1)OCCCO2` [compound 102] is 120 nM.
With `CNc1cc2c(c(C(=O)NC[C@@H]3CCN(CCNS(C)(=O)=O)C[C@H]3O)c1)OCCO2` [compound 103], the IC50 is 22.9 nM.
The figure for `CNCCCCN1CC[C@@H](CNC(=O)c2cc(N)cc3c2OCCO3)[C@H](O)C1` [compound 104] is 33.9 nM; for `CNc1cc(C(=O)NC[C@@H]2CCNC[C@H]2O)c2c(c1Cl)OCCO2` [compound 105] it is 437 nM.
The figure for `CNCCCCN1CC[C@@H](CNC(=O)c2cc(N)cc3c2OCCCO3)[C@H](O)C1` [compound 106] is 363 nM; for `Nc1cc2c(c(C(=O)NC[C@@H]3CCN(CCC4OCCO4)C[C@H]3O)c1)OCCO2` [compound 108] it is 25.7 nM; for `COCCCN1CC[C@@H](CNC(=O)c2cc(N)cc3c2OCCO3)[C@H](O)C1` [compound 109] it is 36.3 nM.
The figure for `CCCCN1CC[C@@H](CNC(=O)c2cc(N)cc3c2OCCCO3)[C@H](O)C1` [compound 110] is 19.1 nM; for `COCCCN1CC[C@@H](CNC(=O)c2cc(N)cc3c2OCCCO3)[C@H](O)C1` [compound 111] it is 20 nM.
In the case of `Nc1cc2c(c(C(=O)NC[C@@H]3CCN(CCCO)C[C@H]3O)c1)OCCCO2` [compound 112], the IC50 was 13.2 nM.
The figure for `CCCCN1CC[C@@H](CNC(=O)c2cc(NC)cc3c2OCCCO3)[C@H](O)C1` [compound 114] is 8.32 nM; for `CNc1cc2c(c(C(=O)NC[C@@H]3CCN(CCCOC)C[C@H]3O)c1)OCCO2` [compound 115] it is 16.2 nM; for `CCCCN1CC[C@@H](CNC(=O)c2cc(NC)cc3c2OCCO3)[C@H](O)C1` [compound 116] it is 16.2 nM.
As for `Nc1cc2c(c(C(=O)NC[C@@H]3CCN(CCCO)C[C@H]3O)c1)OCCO2` [compound 117], the IC50 was 1.55 nM.
The figure for `Nc1cc2c(c(C(=O)NC[C@@H]3CCN(CCC4OCCO4)C[C@H]3O)c1)OCCCO2` [compound 118] is 60.3 nM; for `CCCCN1CC[C@@H](CNC(=O)c2cc(COC)cc3c2OCCCO3)[C@H](O)C1` [compound 119] it is 8.91 nM; for `N#CCc1cc2c(c(C(=O)NC[C@@H]3CCN(CCCO)C[C@H]3O)c1)OCCCO2` [compound 120] it is 43.7 nM.
The figure for `N#CCc1cc2c(c(C(=O)NC[C@@H]3CCNC[C@H]3O)c1)OCCCO2` [compound 121] is 708 nM; for `COCc1cc2c(c(C(=O)NC[C@@H]3CCN(CCCO)C[C@H]3O)c1)OCCCO2` [compound 122] it is 32.4 nM; for `N#CCc1cc2c(c(C(=O)NC[C@@H]3CCN(CCC4OCCO4)C[C@H]3O)c1)OCCCO2` [compound 123] it is 43.7 nM.
The figure for `COCCCN1CC[C@@H](CNC(=O)c2cc(COC)cc3c2OCCCO3)[C@H](O)C1` [compound 124] is 26.9 nM; for `COCc1cc2c(c(C(=O)NC[C@@H]3CCN(CCC4OCCO4)C[C@H]3O)c1)OCCCO2` [compound 126] it is 18.2 nM.
With `N#CCc1cc2c(c(C(=O)NC[C@@H]3CCN(CC4CCCO4)C[C@H]3O)c1)OCCCO2` (stereo partly shown) [compound 127], the IC50 was 17 nM.
The figure for `COc1cc2c(c(C(=O)NC[C@@H]3CCN(CCCC#N)C[C@H]3O)c1)OCCCO2` [compound 128] is 16.6 nM; for `CNc1cc(C(=O)NC[C@@H]2CCN(CC3CCCO3)C[C@H]2O)c2c(c1Cl)OCCO2` (stereo partly shown) [compound 129] it is 16.2 nM; for `CNc1cc(C(=O)NC[C@@H]2CCN(CCCC#N)C[C@H]2O)c2c(c1Cl)OCCO2` [compound 130] it is 55 nM.
The figure for `CCCNc1cc2c(c(C(=O)NC[C@@H]3CCN(CCCC#N)C[C@H]3O)c1)OCCCO2` [compound 131] is 135 nM; for `CS(=O)(=O)NCCN1CC[C@@H](CNC(=O)c2cc(N)cc3c2OCCO3)[C@H](O)C1` [compound 132] it is 91.2 nM.
The figure for `Nc1cc(C(=O)NC[C@@H]2CCNC[C@H]2O)c2c(c1Br)OCCO2` [compound 133] is 537 nM.
As to `CCCCN1CC[C@@H](CNC(=O)c2cc(NCCC)cc3c2OCCCO3)[C@H](O)C1` [compound 134], the IC50 was 95.5 nM.
The figure for `CCCNc1cc2c(c(C(=O)NC[C@@H]3CCN(CCC4OCCO4)C[C@H]3O)c1)OCCCO2` [compound 135] is 93.3 nM; for `CNc1cc2c(c(C(=O)NC[C@@H]3CCN(CCCCO)C[C@H]3O)c1)OCCCO2` [compound 136] it is 81.3 nM; for `Nc1cc(C(=O)NC[C@@H]2CCN(CC3CCCO3)C[C@H]2O)c2c(c1Br)OCCO2` (stereo partly shown) [compound 137] it is 27.5 nM.
For the molecule `N#CCCCCN1CC[C@@H](CNC(=O)c2cc(N)c(Br)c3c2OCCO3)[C@H](O)C1` [compound 138], the IC50 was 81.3 nM.
The figure for `COCCCCN1CC[C@@H](CNC(=O)c2cc(N)c(Br)c3c2OCCO3)[C@H](O)C1` [compound 139] is 39.8 nM; for `Nc1cc(C(=O)NC[C@@H]2CCN(CCCO)C[C@H]2O)c2c(c1Br)OCCO2` [compound 140] it is 93.3 nM.
Turning to `Nc1cc(C(=O)NC[C@@H]2CCN(CCC3OCCO3)C[C@H]2O)c2c(c1Br)OCCO2` [compound 141], the IC50 was 43.7 nM.
The figure for `Nc1cc(C(=O)NC[C@@H]2CCNC[C@H]2O)c2c(c1Br)OCCCO2` [compound 142] is 1150 nM; for `CCCCNc1cc2c(c(C(=O)NC[C@@H]3CCN(CCCC)C[C@H]3O)c1)OCCCO2` [compound 143] it is 61.7 nM; for `CCCCNc1cc2c(c(C(=O)NC[C@@H]3CCN(CCC4OCCO4)C[C@H]3O)c1)OCCCO2` [compound 144] it is 112 nM.
For `N#CCCCN1CC[C@@H](CNC(=O)c2cc(N)c(Br)c3c2OCCCO3)[C@H](O)C1` [compound 145], the IC50 is 63.1 nM.
